Converted amounts (≈) assume the structure as drawn. Read-outs that look alike come from different tables or passages of the source.
What was measured:
[1] = test system: Influenza virus A/WSN/33 (H1N1); assay: microbe, parasite or virus in culture; type: cell-based; details: 72 h
in vitro = details: bovine
A/WSN/33 (H1N1) = assay: Anti-viral activities against subtypes of influenza A and B (plaque number); type: cell-based; details: Influenza A virus, MDCK, 72 h
A/Kumamoto/5/67 (H2N2) = assay: microbe, parasite or virus in culture; type: cell-based; details: Influenza A virus, H2N2, MDCK, 72 h
A/Osaka/5/70 (H3N2) = assay: Anti-viral activities against subtypes of influenza A and B (plaque number); type: cell-based; details: Influenza A virus, H3N2, MDCK, 72 h
A/91/N796 (H3N2) = assay: as above; type: cell-based; details: Influenza A virus, H3N2, MDCK, 72 h
B/91N759 = assay: as above; type: cell-based; details: Influenza B virus, MDCK, 72 h
[2] = Cytotoxicity for MDCK cells; type: cell-based; details: dog, Cell: MDCK, no virus
Method: As in the measurement of anti-viral activity, samples were added to the cells, and incubated with 50 µl of culture medium instead of the viral dilution. The results are expressed as CC50 which is defined as the concentration of the compound at which 50% of the cells are killed due to the toxicity of the compound.
MDCK cells (derived from dog kidney) were cultured on 12-well plates using E-MEM supplemented by 10% fetal bovine serum. To each well was added 250 µl each of a viral dilution prepared by 10-fold serial dilution with E-MEM, followed by incubation for one hour under 5% CO2 at 37 °C. After removal of the viral solution, one ml of E-MEM containing 0.8% agarose, 0.5% bovine serum albumin and 2 µg/ml trypsin, and an appropriately diluted test compound was added. The plate was inverted, and incubated for 3 days under 5% CO2 at 37 °C. The number of plaques formed was counted, and the IC50 value, which is the concentration of the compound at which the number of plaques decreases by 50% compared to that of control which lacks the test compound, was determined. As in the above section 2), CC50 values for MDCK cells were determined.

[3] = viral strain: Influenza virus A/WSN/33 (H1N1), Cell: MDBK, […], 3 days, read-out: IC50

SMILES	IC50 [1, 3] [ng/mL]	CC50 (in vitro) [µg/mL]	other results
C[C@H]1CC[C@H]2C(C)(C)[C@@H](NC(=O)Nc3ccccc3)CC[C@]23Oc2c(c(O)cc4c2CNC4=O)C[C@]13C [Compound (47e), (6aR, 7S, 9aS, 11S, 13aS)-2,3,6,6a, 7,8,9,9a, 10, 11, 12, 13-dodecahydro-5-hydroxy-6a, 7, 10, 10-tetramethyl-11-(3-phenylureido)-3-oxo-1H-benzo[8,8a][1]benzopyrano[2,3-e]isoindole]	25 (≈ 0.0496 µM)	> 10	
C[C@H]1CC[C@H]2C(C)(C)[C@@H](O)[C@@H](O)C[C@]23Oc2c(c(O)cc4c2CNC4=O)C[C@]13C [Compound (50a), (6a R, 7 S, 9a S, 11 R, 12 S, 13a S)-2,3,6,6a, 7,8,9,9a, 10, 11, 12, 13-dodecahydro-5,11,12-trihydroxy-6a, 7, 10, 10-tetramethyl-3-oxo-1H-benzo[8,8a][1]benzopyrano[2,3-e]isoindole]	4 (≈ 0.00996 µM)	> 40	
CC(=O)O[C@H]1C[C@@]23Oc4c(c(O)cc5c4CNC5=O)C[C@]2(C)[C@@H](C)CC[C@H]3C(C)(C)[C@H]1O [Compound (50b), (6a R, 7 S, 9a S, 11 R, 12 S, 13a S)-12-acetoxy-2,3,6,6a,7,8,9,9a, 10, 11, 12, 13-dodecahydro-5,11-dihydroxy-6a, 7, 10, 10-tetramethyl-3-oxo-1H-benzo[8,8a][1]benzopyrano[2,3-e]isoindole]	10 (≈ 0.0225 µM)	> 10	
C[C@H]1CC[C@H]2C(C)(C)[C@@H](O)[C@@H](OC(=O)c3ccccc3)C[C@]23Oc2c(c(O)cc4c2CNC4=O)C[C@]13C [Compound (50c), (6a R, 7 S, 9a S, 11 R, 12 S, 13a S)-12-benzoyloxy-2,3,6,6a, 7,8,9,9a, 10, 11, 12, 13-dodecahydro-5,11-dihydroxy-6a, 7, 10, 10-tetramethyl-3-oxo-1H-benzo[8,8a][1]benzopyrano[2,3-e]isoindole]	50 (≈ 0.0989 µM)	5 to 10 (≈ 9.89 to 19.8 µM)	
C[C@H]1CC[C@H]2C(C)(C)[C@@H](O)[C@@H](OS(C)(=O)=O)C[C@]23Oc2c(c(O)cc4c2CNC4=O)C[C@]13C [Compound (50d), (6a R, 7 S, 9a S, 11 R, 12 S, 13a S)-2,3,6,6a, 7,8,9,9a, 10, 11,12,13-dodecahydro-5,11-dihydroxy-6a, 7,10, 10-tetramethyl-12-methanesulfonyloxy-3-oxo-1H-benzo[8,8a][1]benzopyrano[2,3-e]isoindole]	1.6 (≈ 0.00334 µM)	> 10	
C[C@H]1CC[C@H]2C(C)(C)[C@@H](O)[C@@H](OS(=O)(=O)c3ccccc3)C[C@]23Oc2c(c(O)cc4c2CNC4=O)C[C@]13C [Compound (50e), (6a R, 7 S, 9a S, 11 R, 12 S, 13a S)-2,3,6,6a, 7,8,9,9a, 10, 11,12,13-dodecahydro-5,11-dihydroxy-6a, 7, 10, 10-tetramethyl-12-phenylsulfonyloxy-3-oxo-1H-benzo[8,8a][1]benzopyrano[2,3-e]isoindole]	1.6 to 3.2 (≈ 0.00295 to 0.00591 µM)	> 10	
C[C@H]1CC[C@H]2C(C)(C)C(=NO)CC[C@]23Oc2c(c(O)cc4c2CNC4=O)C[C@]13C [Compound (51a), (6a R, 7 S, 9a S, 13a S)-2,3,6,6a, 7,8,9,9a, 10, 11, 12, 13-dodecahydro-5-hydroxy-11-hydroxyimino-6a, 7, 10, 10-tetramethyl-3-oxo-1H-benzo[8,8a][1]benzopyrano[2,3-e]isoindole]	1.6 (≈ 0.00402 µM)	> 10	
CON=C1CC[C@@]23Oc4c(c(O)cc5c4CNC5=O)C[C@]2(C)[C@@H](C)CC[C@H]3C1(C)C [Compound (51b), (6a R, 7 S, 9a S, 13a S)-2,3,6,6a, 7,8,9,9a, 10, 11, 12, 13-dodecahydro-5-hydroxy-11-methoxyimino-6a, 7, 10, 10-tetramethyl-3-oxo-1H-benzo[8,8a][1]benzopyrano[2,3-e]isoindole]	3 (≈ 0.00727 µM)	5 to 10 (≈ 12.1 to 24.2 µM)	
C[C@H]1CC[C@H]2C(C)(C)C(=NNC(N)=O)CC[C@]23Oc2c(c(O)cc4c2CNC4=O)C[C@]13C [Compound (51d), (6a R, 7 S, 9a S, 13a S)-2,3,6,6a, 7,8,9,9a, 10, 11, 12, 13-dodecahydro-5-hydroxy-6a, 7, 10, 10-tetramethyl-3-oxo-11-ureidoimino-1H-benzo[8,8a][1]benzopyrano[2,3-e]isoindole]	5 (≈ 0.0113 µM)	> 10	
C[C@H]1CC[C@H]2C(C)(C)C(=NN3CCOCC3)CC[C@]23Oc2c(c(O)cc4c2CNC4=O)C[C@]13C [Compound (51f), (6aR, 7S, 9aS, 13aS)-2,3,6,6a, 7,8,9,9a, 10, 11, 12, 13-dodecahydro-5-hydroxy-6a, 7, 10, 10-tetramethyl-11-(1-oxa-4-azacyclohex-4-yl)imino-3-oxo-1H-benzo[8,8a][1]benzopyrano[2,3-e]isoindole]	50 (≈ 0.107 µM)	25 (≈ 53.5 µM)	
CC(=O)O[C@@H]1C(=NO)C[C@@]23Oc4c(c(O)cc5c4CNC5=O)C[C@]2(C)[C@@H](C)CC[C@H]3C1(C)C [Compound (53b), (6aR, 7S, 9aS, 11S, 13aS)-11-acetoxy-2,3,6,6a, 7,8,9,9a, 10, 11, 12, 13-dodecahydro-5-hydroxy-12-hydroxyimino-6a, 7, 10, 10-tetramethyl-3-oxo-1H-benzo[8,8a][1]benzopyrano[2,3-e]isoindole]	80 (≈ 0.175 µM)	> 10	
C[C@H]1CC[C@H]2C(C)(C)[C@@H](O)CC[C@]23Oc2c(c(OP(=O)(O)O)cc4c2CNC4=O)C[C@]13C.[Na] [Compound (59a), (6aR, 7S, 9aS, 11S, 13aS)-2,3,6,6a, 7,8,9,9a, 10, 11, 12, 13-dodecahydro-11-hydroxy-5-dihydroxyphosphinyloxy-6a, 7,10, 10-tetramethyl-3-oxo-1H-benzo[8,8a][1]benzopyrano[2,3-e]isoindole monosodium salt]		> 10	IC50 ([1]; H1N1|WSN, MDBK): 1 ng/mL
C[C@H]1CC[C@H]2C(C)(C)[C@H](O)CC[C@]23Oc2c(c(OP(=O)(O)O)cc4c2CNC4=O)C[C@]13C.[Na] [Compound (59b), (6a R, 7 S, 9a S, 11 R, 13a S)-2,3,6,6a, 7,8,9,9a, 10, 11, 12, 13-dodecahydro-11-hydroxy-5-dihydroxyphosphinyloxy-6a, 7, 10,10-tetramethyl-3-oxo-1H-benzo[8,8a][1]benzopyrano[2,3-e]isoindole monosodium salt]		> 10	IC50 ([1]; H1N1|WSN, MDBK): 1 ng/mL
C[C@H]1CC[C@H]2C(C)(C)C(=NO)CC[C@]23Oc2c(c(OP(=O)(O)O)cc4c2CNC4=O)C[C@]13C.[Na] [Compound (64), (6aR, 7S, 9aS, 13aS)-2,3,6,6a, 7,8,9,9a, 10, 11, 12, 13-dodecahydro-11-hydroxyimino-5-dihydroxyphosphinyloxy-6a, 7, 10, 10-tetramethyl-3-oxo 1H-benzo[8,8a][1]benzopyrano[2,3-e]isoindole monosodium salt]		> 10	IC50 ([1]; H1N1|WSN, MDBK): 1 ng/mL
C[C@@H]1NC(=O)c2cc(O)c3c(c21)O[C@@]12CC[C@H](O)C(C)(C)[C@@H]1CC[C@H](C)[C@@]2(C)C3 [Compound (67a), (1S, 6aR, 7S, 9aS, 11S, 13aS)-2,3,6,6a, 7,8,9,9a, 10, 11, 12, 13-dodecahydro-5, 11-dihydroxy-1,6a, 7, 10, 10-pentamethyl-3-oxo-1H-benzo[8,8a][1]benzopyrano[2,3-e]isoindole]	16 (≈ 0.04 µM)	6.3 to 12.5 (≈ 15.8 to 31.3 µM)	
C[C@H]1NC(=O)c2cc(O)c3c(c21)O[C@@]12CC[C@H](O)C(C)(C)[C@@H]1CC[C@H](C)[C@@]2(C)C3 [Compound (67b), (1R, 6aR, 7S, 9aS, 11S, 13aS)-2,3,6,6a, 7,8,9,9a, 10, 11, 12, 13-dodecahydro-5, 11-dihydroxy-1,6a, 7, 10, 10-pentamethyl-3-oxo-1H-benzo[8,8a][1]benzopyrano[2,3-e]isoindole]	32 (≈ 0.0801 µM)	25 to 50 (≈ 62.6 to 125 µM)	
C[C@H]1CC[C@H]2C(C)(C)[C@H](O)CC[C@]23Oc2c(c(O)cc4c2C(=O)NC4=O)C[C@]13C [Compound (70), (6aR, 7S, 9aS, 11R, 13aS)-2,3,6,6a, 7,8,9,9a, 10, 11, 12, 13-dodecahydro-5, 11-dihydroxy-6a, 7, 10, 10-tetramethyl-13-dioxo-1H-benzo[8,8a][1]benzopyrano[2,3-e]isoindole]	8 (≈ 0.02 µM)		CC50 at 72 h (in vitro; mdbk cells): 12.5 to 25 µg/mL (≈ 31.3 to 62.6 µM)
C[C@H]1CC[C@H]2C(C)(C)[C@@H](O)CC[C@]23Oc2c(c(O)cc4c2CNC4=O)C[C@]13C [SQ-02-S5(2), (6a R, 7S, 9a S, 11 S, 13a S)-2,3,6,6a, 7,8,9,9a, 10, 11, 12, 13-dodecahydro-5, 11-dihydroxy-6a, 7, 10, 10-tetramethyl-3-oxo-1H-benzo[8,8a][1]benzopyrano[2,3-e]isoindole]			IC50 (A/WSN/33 (H1N1)): 1 to 10 ng/mL (≈ 0.00259 to 0.0259 µM); IC50 (A/Kumamoto/5/67 (H2N2)): 0.1 to 1 µg/mL (≈ 0.259 to 2.59 µM); IC50 (A/Osaka/5/70 (H3N2)): 0.1 to 1 µg/mL (≈ 0.259 to 2.59 µM); IC50 (A/91/N796 (H3N2)): 1 µg/mL (≈ 2.59 µM); IC50 (B/91N759): 1 µg/mL (≈ 2.59 µM); CC50 at 3 days [2]: 25 µg/mL (≈ 64.9 µM)
